Measured values reported in patent US20260130856A1, “LIPOSOME COMPOSITIONS FOR DELIVERY OF COMPOUNDS AND METHODS THEREOF” (NanoTech Pharma Inc., priority 2022, published 2026).

Experiment: In vivo pharmacokinetics study of carfilzomib formulations, plasma carfilzomib by LC-MS
Settings: BALB/c nude, mouse, mice, intravenous via tail vein, 5.0 mg/kg
Procedure: The carfilzomib-loaded liposome was prepared based on the description in Example 17. In-vivo pharmacokinetics study was carried out in BALB/c nude mice. Carfilzomib drug solution (free drug) and liposomal carfilzomib were administered intravenously via the tail vein into the mice and the plasma concentration of carfilzomib of both formulations were monitored over time by LC-MS. The injection dose of both drug formulations was 5.0 mg/kg. After intravenous administration, blood was collected at pre-determined time points (3 mice per time point) and was placed into EDTA coated micro containers. The samples were then centrifuged to separate plasma. Plasma levels of carfilzomib were quantified by using LC-MS. PK parameters were then calculated from measured drug plasma concentrations over time.

AUC(0-t): 486 ng·h/mL | clearance: 170 mL/min/kg | half-life: 19.2 min | Vd (read-out: Vdss): 5.36 L/kg
Structure (SMILES): CC(C)C[C@H](NC(=O)[C@H](CCc1ccccc1)NC(=O)CN1CCOCC1)C(=O)N[C@@H](Cc1ccccc1)C(=O)N[C@@H](CC(C)C)C(=O)[C@@]1(C)CO1 [Free carfilzomib, carfilzomib]
